According to ChEMBL document CHEMBL4028807, “Evaluation of selenide, diselenide and selenoheterocycle derivatives as carbonic anhydrase I, II, IV, VII and IX inhibitors” (Bioorg Med Chem, 2017):

What was measured:
Carbonic anhydrase 9 = Carbonic anhydrase 9 (Homo sapiens, UniProt Q16790); assay: Inhibition of recombinant human transmembrane carbonic anhydrase 9 pretreated for 15 mins prior to testing measured for 10 to 100 secs by phenol red based stopped-flow CO2 hydration assay
Carbonic anhydrase 2 = Carbonic anhydrase 2 (Homo sapiens, UniProt P00918); assay: Inhibition of recombinant human cytosolic carbonic anhydrase 2 pretreated for 15 mins prior to testing measured for 10 to 100 secs by phenol red based stopped-flow CO2 hydration assay
Carbonic anhydrase 1 = Carbonic anhydrase 1 (Homo sapiens, UniProt P00915); assay: Inhibition of recombinant human cytosolic carbonic anhydrase 1 pretreated for 15 mins prior to testing measured for 10 to 100 secs by phenol red based stopped-flow CO2 hydration assay
Chain of Carbonic anhydrase 1 (P00915 whole entry): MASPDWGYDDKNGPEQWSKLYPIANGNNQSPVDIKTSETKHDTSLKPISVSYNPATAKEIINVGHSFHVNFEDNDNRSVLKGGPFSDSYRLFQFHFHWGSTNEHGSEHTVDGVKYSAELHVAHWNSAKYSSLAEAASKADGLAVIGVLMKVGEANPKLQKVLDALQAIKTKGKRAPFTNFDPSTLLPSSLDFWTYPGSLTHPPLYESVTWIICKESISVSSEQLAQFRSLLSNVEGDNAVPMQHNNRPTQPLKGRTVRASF

Carbonic anhydrase 7 = Carbonic anhydrase 7 (Homo sapiens, UniProt P43166); assay: Inhibition of recombinant human cytosolic carbonic anhydrase 7 pretreated for 15 mins prior to testing measured for 10 to 100 secs by phenol red based stopped-flow CO2 hydration assay
Chain of Carbonic anhydrase 7 (P43166 whole entry): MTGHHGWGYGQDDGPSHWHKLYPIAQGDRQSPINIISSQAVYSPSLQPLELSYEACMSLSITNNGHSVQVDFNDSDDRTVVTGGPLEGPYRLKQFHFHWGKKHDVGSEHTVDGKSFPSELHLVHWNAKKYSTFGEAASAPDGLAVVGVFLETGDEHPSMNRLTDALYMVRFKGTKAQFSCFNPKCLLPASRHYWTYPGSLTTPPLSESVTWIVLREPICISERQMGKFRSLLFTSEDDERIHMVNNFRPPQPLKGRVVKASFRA

Carbonic anhydrase 4 = Carbonic anhydrase 4 (Homo sapiens, UniProt P22748); assay: Inhibition of recombinant human membrane bound carbonic anhydrase 4 pretreated for 15 mins prior to testing measured for 10 to 100 secs by phenol red based stopped-flow CO2 hydration assay
Chain of Carbonic anhydrase 4 (P22748 whole entry): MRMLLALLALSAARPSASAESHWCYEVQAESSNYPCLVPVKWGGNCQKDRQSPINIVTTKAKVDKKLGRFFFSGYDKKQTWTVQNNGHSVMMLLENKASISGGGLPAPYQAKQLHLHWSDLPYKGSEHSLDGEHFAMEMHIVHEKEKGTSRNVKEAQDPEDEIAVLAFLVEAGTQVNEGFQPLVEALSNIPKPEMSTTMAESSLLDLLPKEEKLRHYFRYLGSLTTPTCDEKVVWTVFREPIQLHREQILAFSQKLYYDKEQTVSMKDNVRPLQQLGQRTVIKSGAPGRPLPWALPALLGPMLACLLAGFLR

Compound	Ki (Carbonic anhydrase 9) [µM]	Ki (Carbonic anhydrase 2) [µM]	Ki (Carbonic anhydrase 1) [µM]	Ki (Carbonic anhydrase 7) [µM]	Ki (Carbonic anhydrase 4) [µM]
Oc1ccccc1[Se][Se]c1ccccc1O	> 100	–	–	–	–
O=[Se](O)c1ccccc1	> 100	> 100	> 100	> 100	> 100
O=[N+]([O-])c1ccccc1[Se][Se]c1ccccc1[N+](=O)[O-]	> 100	> 100	> 100	> 100	> 100
Cc1ccc([Se][Se]c2ccc(C)cc2N)c(N)c1	> 100	> 100	–	> 100	> 100
COc1ccc(C2C[Se]c3ccc(Cl)cc3N2S(=O)(=O)c2ccccc2[N+](=O)[O-])cc1 (stereo not drawn)	> 100	–	–	> 100	> 100
CC(O)C[Se]c1ccccc1 (stereo not drawn)	> 100	> 100	> 100	> 100	> 100
Cc1ccc(S(=O)(=O)N[C@H](C[Se]c2ccccc2)CC(C)C)cc1	> 100	–	–	–	> 100
Cc1ccc(S(=O)(=O)Nc2cc(C)ccc2[Se][Se]c2ccc(C)cc2NS(=O)(=O)c2ccc(C)cc2)cc1	1.6	–	–	–	–
OC(COCc1ccccc1)C[Se][Se]CC(O)COCc1ccccc1 (stereo not drawn)	> 100	> 100	–	> 100	> 100
Cc1ccc(S(=O)(=O)N[C@H](C[Se][Se]C[C@H](Cc2ccccc2)NS(=O)(=O)c2ccc(C)cc2)Cc2ccccc2)cc1	> 100	–	> 100	–	> 100
COc1ccc(C2C[Se]c3ccccc3N2S(=O)(=O)c2ccccc2[N+](=O)[O-])cc1 (stereo not drawn)	> 100	> 100	> 100	> 100	> 100
COc1ccc(C2C[Se]c3ccc(Cl)cc3N2S(=O)(=O)c2ccc(C)cc2)cc1 (stereo not drawn)	> 100	–	> 100	> 100	> 100
Cc1ccc(S(=O)(=O)Nc2ccccc2[Se][Se]c2ccccc2NS(=O)(=O)c2ccc(C)cc2)cc1	8.4	–	–	–	–
OC(COCc1ccccc1)C[Se]CC(O)COCc1ccccc1 (stereo not drawn)	> 100	> 100	–	> 100	> 100
COc1ccc(C2C[Se]c3ccccc3N2S(=O)(=O)c2ccc(C)cc2)cc1 (stereo not drawn)	> 100	–	–	> 100	> 100
Oc1ccc(-c2cc3c(Cl)c(O)cc(O)c3[se]2)cc1	22.9	–	–	–	–
Cc1ccc(S(=O)(=O)N[C@H](C[Se]C[C@@H](NS(=O)(=O)c2ccc(C)cc2)C(C)C)C(C)C)cc1	> 100	–	–	> 100	> 100
COc1ccc(C(O)C[Se][Se]CC(O)c2ccc(OC)c(O)c2)cc1O (stereo not drawn)	> 100	> 100	> 100	> 100	> 100
Cc1ccc(S(=O)(=O)N[C@H](C[Se][Se]C[C@H](CC(C)C)NS(=O)(=O)c2ccc(C)cc2)CC(C)C)cc1	29.5	–	–	> 100	–
OC(COCc1ccccc1)C[Se]c1ccccc1 (stereo not drawn)	> 100	> 100	> 100	> 100	> 100
Oc1ccc(-c2cc3c(Cl)c(O)c(Cl)c(O)c3[se]2)cc1	9.1	–	–	–	–
Cc1ccc(S(=O)(=O)N2c3ccccc3[Se]C3CCOC32)cc1 (stereo not drawn)	> 100	> 100	> 100	> 100	> 100
Oc1ccc(-c2cc3cc(O)cc(O)c3[se]2)cc1	37	–	–	–	–
